Measured values from patent US9375000B2, “Pesticidal arylpyrrolidines” (Bayer Intellectual Property GmbH, priority 2011, dated 2016).

Legend:
[1] = log P by HPLC on reversed phase columns (EEC directive 79/831 Annex V.A8); assay type: physicochemical
Method: Calibration was done with not branched alkan2-ones (with 3 to 16 carbon atoms) with known log P-values (measurement of log P values using retention times with linear interpolation between successive alkanones). lambda-maX-values were determined using UV-spectra from 200 nm to 400 nm and the peak values of the chromatographic signals.

[2] = test system: fall armyworm larvae (Spodoptera frugiperda); assay: Spodoptera frugiperda test (SPODFR spray application); assay type: in vivo; conditions: application rate 500 g/ha; after 7 days
Method: To produce a suitable preparation of the active compound, 1 part by weight of active compound is mixed with the stated amount of solvent and emulsifier, and the concentrate is diluted with emulsifier-containing water to the desired concentration. Maize (Zea mais) leaf sections are sprayed with a preparation of the active ingredient of the desired concentration. Once dry, the leaf sections are infested with fall armyworm larvae (Spodoptera frugiperda). After 7 days mortality in % is determined. 100% means that all caterpillars have been killed and 0% means that none of the caterpillars have been killed.

[3] = test system: mustard beetle larvae (Phaedon cochleariae); assay: Phaedon cochleariae test (PHAECO spray application); assay type: in vivo; conditions: application rate 500 g/ha; after 7 days
Method: To produce a suitable preparation of active compound, 1 part by weight of active compound is mixed with the stated amount of solvent and emulsifier, and the concentrate is diluted with emulsifier-containing water to the desired concentration. Chinese cabbage (Brassica pekinesis) leaf-disks are sprayed with a preparation of the active ingredient of the desired concentration. Once dry, the leaf disks are infested with mustard beetle larvae (Phaedon cochleariae). After 7 days mortality in % is determined. 100% means that all beetle larvae have been killed and 0% means that none of the beetle larvae have been killed.

[4] = test system: two spotted spidermite (Tetranychus urticae), OP-resistant; assay: Tetranychus urticae test, OP-resistant (TETRUR spray application); assay type: in vivo; conditions: application rate 500 g/ha; after 6 days
Method: To produce a suitable preparation of active compound, 1 part by weight of active compound is mixed with the stated amount of solvent and emulsifier, and the concentrate is diluted with emulsifier-containing water to the desired concentration. French beans (Phaseolus vulgaris) which are heavily infested with all stages of the two spotted spidermite (Tetranychus urticae), are sprayed with a preparation of the active ingredient at the desired concentration. After 6 days mortality in % is determined. 100% means that all spider mites have been killed and 0% means that none of the spider mites have been killed.

Musca domestica = assay: Test against Musca domestica; assay type: in vivo; conditions: Musca domestica, 48 h, read-out: activity (mortality)
Method: (§1) Solvent: dimethyl sulfoxide
To produce a suitable preparation of active compound, 10 mg of active compound are dissolved in 0.5 ml solvent, and the concentrate is diluted with water to the desired concentration. Prior to the assay, a piece of kitchen sponge is soaked with a mixture of sugar and compound solution and placed into a container. 10 adults (Musca domestica) are placed into the container and closed with a perforated lid. After 2 days mortality in % is determined. 100% means that all the flies have been killed; 0% means that none of the flies have been killed.

[5] = test system: Two-Spotted Spider Mite (Tetranychus urticae); assay: Two-spotted spider mite (Tetranychus urticae) spray test on kidney bean; assay type: in vivo; conditions: Tetranychus urticae, 168 h, after 7 days, read-out: acaricidal activity; for pest or weed control at 20 ppm: active compound concentration 20 ppm
How it was run: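 Kidney bean plants at the two-leaf stage carried 50-100 adult mites and were sprayed one day later with compound in DMF/polyoxyethylene alkyl phenyl ether diluted in water. Ammonium salt and penetration enhancer at 1000 ppm were added if needed. Acaricidal activity (% mites killed) was scored after 7 days in a greenhouse.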

[6] = test system: Tobacco Cutworm (Spodoptera litura) Larvae; assay: Tobacco cutworm (Spodoptera litura) larvae, sweet potato leaf dip test; assay type: in vivo; conditions: active compound concentration 20 ppm; dead larvae after 7 days
How it was run: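 Sweet potato leaves were dipped in DMF/emulsifier test solution at the set concentration and air-dried. Ten third-instar S. litura larvae were placed per dish at 25 °C, with fresh leaves added on days 2 and 4. Mortality was counted on day 7, given as % insecticidal activity averaged over two dishes.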

[7] = test system: Lucilia cuprina 1st instar larvae; assay: Test against Lucilia cuprina larvae; assay type: in vivo; conditions: 48 h, read-out: activity (larval mortality)
Method: as §1
10 mg active compound are dissolve in 0.5 mL dimethyl sulfoxide. Serial dilutions are made to obtain the desired rates.
Approximately 20 Lucilia cuprina 1st instar larvae are transferred into a test tube containing 1 cm^3 of minced horse meat and 0.5 ml aqueous dilution of test compound. After 48 hrs percentage of larval mortality are recorded. 100% efficacy=all larvae are killed, […].

Ctenocephalides felis = assay: Test against Ctenocephalides felis (CTECFE), blood feeding; assay type: in vivo; conditions: Ctenocephalides felis, in Bos taurus, 48 h, read-out: activity (mortality)
Method: as §1
To produce a suitable preparation of active compound, 10 mg of active compound are dissolved in 0.5 ml solvent, and the concentrate is diluted with cattle blood to the desired concentration. Approximately 20 adult unfed (Ctenocepahlides felis) are placed in flea chambers. The blood chamber, sealed with parafilm on the bottom, are filled with cattle blood supplied with compound solution and placed on top of the flea chamber, so that the fleas are able to suck the blood. The blood chamber is heated to 37° C. whereas the flea chamber is kept at room temperature.
After 2 days mortality in % is determined. 100% means that all the fleas have been killed; 0% means that none of the fleas have been killed.

[8] = test system: Cucurbit Leaf Beetle (Aulacophora femoralis); assay: Cucurbit leaf beetle (Aulacophora femoralis) cucumber leaf dip test; assay type: in vivo; conditions: after 7 days; for pest or weed control at 20 ppm / pest or weed control at 4 ppm: Aulacophora, foliar, 168 h, read-out: insecticidal activity; for pest or weed control at 4 ppm: active compound concentration 4 ppm
How it was run: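 Cucumber leaves dipped in compound formulated with DMF and polyoxyethylene alkyl phenyl ether, diluted in water, with ammonium salt or ammonium salt plus penetration enhancer at 1000 ppm added if necessary; dried leaves placed on sterilized soil with five second-instar larvae. Kept at 25° C; larval mortality counted after 7 days.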

[9] = test system: Larvae of Spodoptera litura; assay: Larvae of Spodoptera litura, method using artificial feeds; assay type: in vivo; conditions: Spodoptera litura, 168 h, artificial feed, after 7 days, read-out: insecticidal activity (pesticidal ratio); for pest or weed control at 20 ppm: active compound concentration 20 ppm; for pest or weed control at 4 ppm: active compound concentration 4 ppm
How it was run: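 Compound formulated in dimethylformamide with polyoxyethylene alkyl phenyl ether emulsifier, water-diluted and poured onto artificial diet. Five 3rd-instar Spodoptera litura larvae per cup, held at 25° C and 50-60% humidity. Mortality after 7 days expressed as pesticidal ratio.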

Thrips palmi = Thrips palmi spray test (THRIPL); assay type: in vivo; conditions: active compound concentration 20 ppm; after 6 days
How it was run: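 Cucumber seedlings sprayed with compound formulated in DMF/polyoxyethylene alkyl phenyl ether and diluted in water, ammonium salt ± penetration enhancer at 1000 ppm added if needed. About 100 T. palmi eggs attached, plants held caged at 100% humidity, 23 °C. Percent activity scored from feeding damage after 6 days, 100 = no damage, 0 = as untreated.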

[10] = test system: adult engorged female Boophilus microplus ticks; assay: Test against Boophilus microplus (dip); assay type: in vivo; conditions: Rhipicephalus microplus, 168 h, read-out: activity (mortality)
Method: as §1
To produce a suitable preparation of active compound, 10 mg of active compound are dissolved in 0.5 ml solvent, and the concentrate is diluted with water to the desired concentration. Eight to ten adult engorged female Boophilus microplus ticks are placed in perforated plastic beakers and immersed in aqueous compound solution for one minute. Ticks are transferred to a filter paper in a plastic tray. Egg deposition of fertile eggs is monitored after. After 7 days mortality in % is determined. 100% means that all the ticks have been killed; 0% means that none of the ticks have been killed.

[11] = active compound concentration 20 ppm

Cc1cc(N2CCC(c3cc(Cl)cc(Cl)c3)(C(F)(F)F)C2O)ccc1CNC(=O)C1CC1 (mixture of isomers) [A1-77]
100%: activity (mortality) [2] | activity (mortality) [3]
3.91: log P [1]

Cc1cc(N2CCC(c3cc(Cl)cc(Cl)c3)(C(F)(F)F)C2O)ccc1CNC(=O)CC(F)(F)F (mixture of isomers) [A1-79]
100%: activity (mortality) [3]
83%: activity (mortality) [2]
90%: activity (mortality) [4]
4.09: log P [1]

O=C(NCc1ccc(N2CCC(c3cc(C(F)(F)F)cc(C(F)(F)F)c3)(C(F)(F)F)C2O)cc1Cl)C1CC1 (stereo not drawn) [A1-27, N-(4-{3-[3,5-bis(trifluoromethyl)phenyl]-2-hydroxy-3-(trifluoromethyl)pyrrolidin-1-yl}-2-chlorobenzyl)cyclopropanecarboxamide]
100%: mortality at 100 ppm (Musca domestica) | pest or weed control at 20 ppm [5] | insecticidal activity [6] | mortality at 100 ppm [7] | mortality at 100 ppm (Ctenocephalides felis) | pest or weed control at 20 ppm [8, 11] | pest or weed control at 20 ppm [9]

O=C(NCc1ccc(N2CCC(c3cc(Cl)cc(Cl)c3F)(C(F)(F)F)C2O)cc1C(F)(F)F)C1CC1 (stereo not drawn) [A1-409, N-{4-[3-(3,5-dichloro-2-fluorophenyl)-2-hydroxy-3-(trifluoromethyl)pyrrolidin-1-yl]-2-(trifluoromethyl)benzyl}cyclopropanecarboxamide]
100%: mortality at 100 ppm (Musca domestica) | pest or weed control at 4 ppm ([5]; active compound concentration 4 ppm) | mortality at 100 ppm [7] | mortality at 100 ppm (Ctenocephalides felis) | pest or weed control at 4 ppm [8] | pest or weed control at 4 ppm [9]
90%: mortality at 100 ppm [10]
98%: insecticidal activity (by feeding damage degree) (Thrips palmi)

CCC(=O)NCc1ccc(N2CCC(c3cc(Cl)c(Cl)c(Cl)c3)(C(F)(F)F)C2O)nc1C(F)(F)F (stereo not drawn) [A3-13, N-({6-[2-hydroxy-3-(3,4,5-trichlorophenyl)-3-(trifluoromethyl)-pyrrolidin-1-yl]-2-(trifluoromethyl)pyridin-3-yl}methyl)propanamide]
100%: mortality at 100 ppm (Musca domestica) | pest or weed control at 20 ppm [5] | mortality at 20 ppm [10] | insecticidal activity [6] | mortality at 100 ppm [7] | mortality at 100 ppm (Ctenocephalides felis) | pest or weed control at 20 ppm [8, 11] | pest or weed control at 20 ppm [9]

CCC(=O)NCc1cc(F)c(N2CCC(c3cc(Cl)cc(Cl)c3)(C(F)(F)F)C2O)nc1Cl (stereo not drawn) [A3-356]
100%: activity (mortality) [4] | activity (mortality) [2] | activity (mortality) [3] | insecticidal activity [8, 11]
3.86: logP ([1]; HPLC on reversed phase columns)

O=C(NCc1cc(F)c(N2CCC(c3cc(Cl)cc(Cl)c3)(C(F)(F)F)C2O)nc1Cl)C1CC1 (stereo not drawn) [A3-359]
100%: activity (mortality) [4] | activity (mortality) [2] | activity (mortality) [3]

O=C(NCc1cnc(N2CCC(c3cc(C(F)(F)F)cc(C(F)(F)F)c3)(C(F)(F)F)C2O)cc1C(F)(F)F)C1CC1 (stereo not drawn) [A5-27, N-{[6-{3-[3,5-bis(trifluoromethyl)phenyl]-2-hydroxy-3-(trifluoromethyl)pyrrolidin-1-yl}-4-(trifluoromethyl)pyridin-3-yl]methyl}cyclopropanecarboxamide]
100%: mortality at 100 ppm (Musca domestica) | pest or weed control at 20 ppm [5] | mortality at 100 ppm [10] | mortality at 100 ppm [7] | mortality at 100 ppm (Ctenocephalides felis) | pest or weed control at 4 ppm [8] | pest or weed control at 20 ppm [8, 11] | pest or weed control at 4 ppm [9] | pest or weed control at 20 ppm [9]
90%: insecticidal activity (by feeding damage degree) (Thrips palmi)
